Assays:
[1] = target: T1, human full-length glucocorticoid receptor (Homo sapiens, UniProt P04150); experiment: Glucocorticoid Receptor Binding Assay (II), fluorescence polarization competitor kit (Fluormone GS1); conditions: cell lysate with recombinant human full-length GR
T1 construct: recombinantly expressed human full-length glucocorticoid receptor; purchased PanVera Co., Madison, Wis; P2816
T1 sequence (P04150 1-777): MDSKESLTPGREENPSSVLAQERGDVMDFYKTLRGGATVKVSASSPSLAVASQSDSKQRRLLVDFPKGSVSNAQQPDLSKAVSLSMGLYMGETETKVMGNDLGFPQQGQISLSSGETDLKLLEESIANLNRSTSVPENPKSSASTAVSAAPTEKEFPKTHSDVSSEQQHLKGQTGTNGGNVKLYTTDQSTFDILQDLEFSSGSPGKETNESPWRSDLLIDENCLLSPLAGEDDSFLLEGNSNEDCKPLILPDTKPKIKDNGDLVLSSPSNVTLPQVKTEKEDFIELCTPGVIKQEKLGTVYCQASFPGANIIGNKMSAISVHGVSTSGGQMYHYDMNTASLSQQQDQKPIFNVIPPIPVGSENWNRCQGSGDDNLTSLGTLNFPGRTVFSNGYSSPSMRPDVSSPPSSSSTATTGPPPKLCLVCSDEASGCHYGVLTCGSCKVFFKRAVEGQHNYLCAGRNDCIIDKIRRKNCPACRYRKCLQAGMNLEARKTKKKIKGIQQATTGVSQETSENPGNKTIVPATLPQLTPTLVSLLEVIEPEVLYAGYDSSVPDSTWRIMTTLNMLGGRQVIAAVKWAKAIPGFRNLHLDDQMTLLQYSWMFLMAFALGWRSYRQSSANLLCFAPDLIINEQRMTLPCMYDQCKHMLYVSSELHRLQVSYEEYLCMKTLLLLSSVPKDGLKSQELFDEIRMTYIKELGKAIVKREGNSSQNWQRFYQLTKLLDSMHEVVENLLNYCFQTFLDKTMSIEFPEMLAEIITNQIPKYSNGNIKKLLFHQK
Procedure, shortened: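 Lysate with recombinant human full-length GR competed against 1 nM Fluormone GS1 tracer. Fluorescence polarization was read after 1 h at room temperature, with compounds tested from 2.4 nM to 40 microMolar.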

[2] = tested on: AP-1 induced transcriptional activity; experiment: Cellular Transrepressional Assay (AP-1 luciferase reporter in A549 cells, PMA-activated); assay type: cell-based; conditions: Homo sapiens, A549, 7 h, pAP-1-Luc, 10 ng/ml PMA, read-out: AP-1 (EC50, nM) (Cellular Transrepression Assay)
Procedure, shortened: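 A549 cells stably carrying a 7×AP-1-luciferase reporter, stimulated with 10 ng/ml PMA with or without compound (0.1 nM-40 μM) for 7 h. Luciferase luminescence read 10 min after reagent addition; repression is percentage decrease of PMA-alone signal, EC50 by curve fitting.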

[3] = target: T2, human glucocorticoid receptor (Homo sapiens, UniProt P04150); experiment: Glucocorticoid Receptor Binding Assay (I), fluorescence polarization competitor kit (Fluormone GS Red); conditions: purified human recombinant full-length GR
T2 construct: purified human recombinant full-length glucocorticoid receptor (2 nM); purchased Invitrogen Part # 2893
T2 sequence (P04150 1-777): T1 sequence (P04150 1-777)
Procedure, shortened: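 Fluorescence polarization competition: full-length recombinant human GR (2 nM) incubated with 1 nM Fluormone GS Red plus test compound (8.5E-05 to 5 μM) for 2 h at room temperature in the dark before FP read-out.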

CC(C)CC(c1ccc2c(cnn2-c2ccc(F)cc2)c1)C(C)(C)CNC(=O)NC(C)C (stereo not drawn) [Example 34, 1-(3-(1-(4-fluorophenyl)-1H-indazol-5-yl)-2,2,5-trimethylhexyl)-3-isopropylurea]
Ki [1]: 7.1 nM | EC50 [2]: 129 nM | Ki [3]: 1.1 nM

CC(C)CC(c1ccc2c(cnn2-c2ccc(F)cc2)c1)C(C)(C)CNC(=O)NC(C)(C)C (stereo not drawn) [Example 28, 1-tert-butyl-3-(3-(1-(4-fluorophenyl)-1H-indazol-5-yl)-2,2,5-trimethylhexyl)urea]
Ki [1]: 4.9 nM | EC50 [2]: 21 nM | Ki [3]: 4.2 nM

CC(C)CC(c1ccc2c(cnn2-c2ccc(F)cc2)c1)C(C)(C)CNC(=O)NC1CCC1 (stereo not drawn) [Example 27, 1-cyclobutyl-3-(3-(1-(4-fluorophenyl)-1H-indazol-5-yl)-2,2,5-trimethylhexyl)urea]
Ki [1]: 6.4 nM | EC50 [2]: 219 nM | Ki [3]: 4.6 nM

CC(C)(C)NC(=O)NCC(C)(C)[C@@H](c1ccccc1)c1ccc2c(cnn2-c2ccc(F)cc2)c1 [Example 9, (S)-1-tert-butyl-3-(3-(1-(4-fluorophenyl)-1H-indazol-5-yl)-2,2-dimethyl-3-phenylpropyl)urea]
Ki [1]: 5.6 nM | EC50 [2]: 29 nM | Ki [3]: 8.3 nM

From patent publication US8198311B2, “Modulators of glucocorticoid receptor, AP-1, and/or NF-κB activity and use thereof” (Bristol-Myers Squibb Company, priority 2006, dated 2012)
